From US4031218A, “7-(2,3-Dihydroxypropyl-1,3-di-n-propylxanthine and a pharmaceutical composition containing same useful as a bronchial muscle relaxant” (Mallinckrodt, Inc., priority 1976, dated 1977)
Values after ≈ are worked out from the molar mass of the structure shown.

Tests used:
[1] = Kattus et al. 1951; cited from earlier work
[2] = Summary of relative molar activities (means and therapeutic efficacy); details: mean bronchodilator (therapeutic) activity divided by mean acute toxic and side effect activity
Source text: ^g - Mean bronchodilator (therapeutic) activity divided by mean acute

dogs [3] = details: dog, in vivo, iv
Method: Intravenous Cardiovascular Evaluation in Dogs
Thirteen adult mongrel dogs of either sex ranging in weight from 16.7 to 25.0 kg were employed to compare the overall intravenous cardiovascular activity of the five experimental compounds.
Dogs were anesthetized with pentobarbital sodium, 30-35 mg/kg i.v., fitted with a cuffed endotracheal tube, and ventilated with a Harvard Animal Respiratory Pump. A femoral vein was cannulated for i.v. drug administration. The left common carotid artery was cannulated and the cannula tip advanced into the aortic arch. A median sternotomy was performed and appropriately sized electromagnetic blood flow transducers (Biotronex) were placed around the ascending aorta and left anterior descending coronary artery. These procedures allowed continuous recording or calculation of the following parameters:
a. Mean Arterial Pressure (MAP); from the aortic cannula.
b. Heart Rate (HR); electronically from pulsatile ascending aortic flow.
c. Cardiac Output (CO); mean ascending aortic flow.
d. Myocardial Contractile Force (MCF); dQ/dt, the first derivative of maximum aortic flow rate, also known as peak aortic flow acceleration.
e. Stroke Volume (SV); quotient of CO/HR.
f. Cardiac Work (CW); product of CO X MAP.
g. Total Peripheral Resistance (TPR); quotient of MAP/CO.
h. Coronary Flow (CF); mean left anterior descending (LAD) coronary flow.
i. Coronary Resistance (CR); quotient of MAP/CF.
Logarithmically increasing doses of the appropriate compound were injected at 20-minute intervals. Responses were measured at 1, 2, 5, 10, 15 and 20 minutes after each dose and the average response during that period was calculated. Theophylline (aminophylline), dyphylline (II), and Compound V were employed in both 20 and 80 mg/ml concentrations in distilled water. Compounds III and IV were used in 10 and 30 mg/ml concentrations respectively.

dogs [4] = assay: Oral minimum emetic dose in dogs; assay type: in vivo, dog
Method: 2. Oral Minimum Emetic Dose
The minimum dose of each compound which causes emesis after oral administration was estimated in a group of five adult mongrel dogs of either sex. Logarithmically increasing or decreasing (depending upon response) doses of each compound were administered orally via a flexible stomach tube. The compounds were dissolved in distilled water in concentrations to allow a constant volume dose of 5 ml/kg. […] Onset, frequency, and duration of emetic episodes as well as signs of CNS stimulation were also recorded.

dogs [5] = details: dog, in vivo, iv; remark: listed apart in the source
Method: Acute Intravenous Evaluation in Dogs
Compounds were tested in two dogs each. Animals were initially hydrated with 30 ml/kg of water, orally; then anesthetized with pentobarbital sodium, 30-35 mg/kg i.v. One femoral vein was cannulated and a constant intravenous infusion of warm saline (3 ml/min.) was begun and continued throughout the experiment. The contralateral femoral vein was also cannulated for intravenous drug administration. Urine was directly collected from bilateral ureter cannulae. After a 20-minute control collection period, the first dose of the appropriate compound was injected and urine was collected at 20-minute intervals for a period of one hour. This procedure was repeated for two additional doses of the same compound. Urine volume, pH, and sodium and potassium levels were determined for each 20-minute collection period and sums were obtained for the one-hour period after each dose. Test results, reported as successive changes in each parameter, were compared accordingly.

[6] = Intravenous emetic study in dogs (ED50); assay type: in vivo, dog; details: dog, in vivo, iv; read-out: ED50 (median emetic dose), I.V. Dogs
Method: (§1) Twelve adult mongrel dogs of either sex were employed to determine the median emetic dose (ED50) of all five experimental compounds after intravenous administration. […] Onset, frequency, and duration of emetic episodes were also recorded. The dogs were not fasted, were allowed at least 2 days rest between doses, and no animal received the same compound twice in succession. […] ED50 values were calculated according to the method of Litchfield and Wilcoxon (1949).

dogs [7] = assay: Intravenous emetic study in dogs (ED50); assay type: in vivo, dog; details: estimated at HBD
Method: as §1

human bronchodilator = assay: Estimated human bronchodilator dose equivalent to recommended theophylline dose; details: based on recommended theophylline dose and relative bronchodilator activities
Source text: Experimental results are summarized in Table I wherein pharmacologic and toxicologic activities relative to that of theophylline are expressed on a molar basis.
^a - Dose: Based on the recommended dose for theophylline and the
relative activities in the bronchodilator experiments.

[8] = prior art statement; cited from earlier work

SMILES: CCCCn1c(=O)c2[nH]cnc2n(CCCC)c1=O [1,3-dibutyl xanthine]
- Diuretic and emetic properties in words (prior art) [1]: extremely potent

SMILES: CCn1c(=O)c2[nH]cnc2n(CC)c1=O [1,3-diethyl, 1,3-diethyl xanthine]
- Diuretic and emetic properties in words (prior art) [1]: extremely potent

SMILES: CCCn1c(=O)c2[nH]cnc2n(CCC)c1=O [1,3-dipropyl, 1,3-dipropyl xanthine]
- Diuretic and emetic properties in words (prior art) [1]: extremely potent

SMILES: Cn1c(=O)c2[nH]cnc2n(C)c1=O [Compound I, 1,3-dimethylxanthine]
- Therapeutic Efficacy [2]: 1.00
- CF (coronary flow) change (dogs [3]): +21 %Δ
- CO (cardiac output) change (dogs [3]): +7 %Δ
- CW (cardiac work) change (dogs [3]): -5 %Δ
- Cardiovascular effects (Mean) (dogs [3]): 12
- HR (heart rate) change (dogs [3]): +11 ΔBPM
- MAP (mean arterial pressure) change (dogs [3]): -12 ΔmmHg
- MCF (myocardial contractile force) change (dogs [3]): +17 %Δ
- TPR (total peripheral resistance) change (dogs [3]): -12 %Δ
- MED (minimum emetic dose), P.O. Dogs (dogs [4]): 128 mg/kg
- Emetic effect, P.O. Dogs (dogs [4]; estimated at HBD): None
- solubility (Solubility; water): 8000 µg/mL (≈ 44.4 mM)
- Solubility in words (Solubility; water solubility, qualitative): poor solubility
- Diuretic Activity, I.V. Dogs (dogs [5]): Mild
- ED50 [6]: 58 mg/kg
- Emetic effect, I.V. Dogs (dogs [7]): None
- Estimated Human Bronchodilator Dose (HBD), per 70 kg (human bronchodilator): 200 mg/70 kg
- Estimated Human Bronchodilator Dose (HBD), per kg (human bronchodilator): 2.9 mg/kg
- Water solubility in words (prior art) [8]: lack of water solubility
